Data: paper PMC10349806 (Nature Communications, 2023)
Numbering of substitutions follows the chain as printed. Several values for one entry are separate records, joined by “and”; a condition that tells them apart may be missing. Identical values can stand only once.

Columns and labels:
[1] = biological target: T1, PfCRT variant E372A (Plasmodium falciparum, UniProt Q9N623, A220S/E372A/I356T/K76T/M74I/N326S/N75E/Q271E/R371I); test: CQ uptake assay, oocytes expressing E372A; format: cell-based
T1 sequence (Q9N623 1-424 M74I/N75E/K76T/A220S/Q271E/N326S/I356T/R371I/E372A): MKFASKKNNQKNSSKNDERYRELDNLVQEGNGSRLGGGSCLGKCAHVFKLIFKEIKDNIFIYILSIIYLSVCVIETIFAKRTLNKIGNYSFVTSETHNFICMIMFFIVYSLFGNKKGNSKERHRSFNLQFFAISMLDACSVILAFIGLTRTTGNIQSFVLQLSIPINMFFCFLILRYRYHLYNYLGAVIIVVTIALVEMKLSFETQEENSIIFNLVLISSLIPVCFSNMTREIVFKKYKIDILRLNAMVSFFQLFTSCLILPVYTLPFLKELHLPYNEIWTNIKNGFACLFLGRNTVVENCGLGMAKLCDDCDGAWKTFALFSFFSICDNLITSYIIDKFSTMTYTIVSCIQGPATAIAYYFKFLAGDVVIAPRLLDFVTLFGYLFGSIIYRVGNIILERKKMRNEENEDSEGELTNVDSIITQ
Experimental: (§1) Site-directed mutagenesis of PfCRT^Dd2 was performed as described using the megaprimer method with overlap extension[21],[54]. The primer pairs used are listed in Supplementary Table 6. Please note that a codon-optimized and oocyte-adapted version of PfCRT^Dd2 was used[22] (Supplementary Fig. 16). The resulting DNA fragment was cloned into the SP64T expression vector and verified by sequencing.
(§2) Oocytes were obtained as described previously. Briefly, adult (>2 years old) female X. laevis frogs (NASCO) were anesthetized in a cooled solution of ethyl 3-amino benzoate methanesulfonate (0.1%, w/v), followed by a surgical removal of parts of the ovary. The ovary lobes were carefully dissected and small pieces of oocytes were incubated in Ca^2+-free ND96 buffer (96 mM NaCl, 2 mM KCl, 1 mM MgCl2 buffered with 5 mM HEPES/NaOH, pH 7.5) supplemented with collagenase D (0.1%, w/v; Roche), BSA (0.5%, w/v), and 9 mm Na2HPO4 at 18 °C for 14-16 h while gentle shaking. After incubation, the oocytes were carefully washed several times with ND96 buffer (96 mM NaCl, 2 mM KCl, 1.8 mM CaCl2, 1 mM MgCl2 buffered with 5 mM HEPES/NaOH, pH 7.5) supplemented with 100 mg l^−1 gentamycin). Defolliculated and healthy-looking stage V-VI oocytes were manually selected for RNA microinjection. The RNA was generated as following: The codon-optimized sequences of PfCRT variants were cloned into the pSP64T expression vector. After vector linearization using the restriction endonucleases BamHI or SalI (New England Biolabs), transcription was performed using the in vitro SP6 mMessage mMachine Kit (Ambion)[34]. The obtained RNA was kept at −80 °C and diluted with nuclease-free water to a concentration of 0.6 μg μl^−1. Precision-bore glass capillary tubes (3.5-inch glass capillaries; Drummond Scientific Co.) were pulled on a vertical puller (P-87 Flaming/Brown micropipette puller, Sutter Instrument Co.), graduated, and placed on a microinjector (Nanoject II Auto-Nanoliter Injector, Drummond Scientific Co.). 50 nl of nuclease-free water alone (control oocytes) or 50 nl of 0.6 μg μl^−1 RNA were injected under stereomicroscopic control. Injected oocytes were incubated for 46–72 h at 18 °C with twice-daily buffer changes before usage in experiments.
(§3) Drug uptake assays were performed as described previously[21],[22],[24],[34]. […] The direction of radio-labeled drug transport is here from the mostly acidic extracellular solution (pH 4.5 or 6.0, as indicated) into the oocyte cytosol (pH ∼ 7.2), which corresponds to the efflux of drug from the acidic digestive vacuole (pH 5.2) into the parasite cytoplasm (pH 7.2). The topology of PfCRT in the oolemma is such that both the N- and C-terminus face the extracellular milieu[3],[22]. In the parasite, the N- and C-terminus face the lumen of the digestive vacuole. CQ uptake kinetics were performed by incubating oocytes in ND96 buffer adjusted to a pH of 4.5, 5.0, 5.5, or 6.0 and supplemented with 50 nM [^3H]CQ and one of 7 different CQ concentrations (10 µM, 50 µM, 100 µM, 200 µM, 300 µM, 400 µM, 500 µM CQ). The reaction was stopped at the 60 min time point, which is in the linear uptake range[22],[34] (Supplementary Fig. 17). For determination of the amount of drug uptake for each oocyte, the reaction medium was removed and the oocytes were washed three times with 2 ml of ice-cold ND96 buffer. Each oocyte was individually transferred to a scintillation vial containing 5% sodium dodecyl sulfate (200 μl) for lysis. The radioactivity of each sample was measured using a liquid scintillation analyzer Tri-Carb 4910 TR (PerkinElmer). Oocytes that were injected with water instead of RNA were analyzed in parallel, representing the uptake of a drug by diffusion and/or endogenous permeation pathways. The resulting value represents the “background“ level of drug accumulation in oocytes (in-depth discussion in[22]). […]

[2] = biological target: T2, PfCRT variant H46A (Plasmodium falciparum, UniProt Q9N623, A220S/H46A/I356T/K76T/M74I/N326S/N75E/Q271E/R371I); test: CQ uptake assay, oocytes expressing H46A; format: cell-based
T2 sequence (Q9N623 1-424 H46A/M74I/N75E/K76T/A220S/Q271E/N326S/I356T/R371I): T1 sequence (Q9N623 1-424 M74I/N75E/K76T/A220S/Q271E/N326S/I356T/R371I/E372A) with H46A, A372E
Experimental: as §1, §2, §3

[3] = E372A, 50 µM CQ, 1 h, mean ± SEM
[4] = pH 4.5, single replicates, Fig 1d left
[5] = H46A, 50 µM CQ, 1 h, mean ± SEM

SMILES: CCN(CC)CCCC(C)Nc1ccnc2cc(Cl)ccc12 (stereo not shown) [CQ, chloroquine]
- Activity at pH 4.5 [1, 3]: 2.23 ± 0.25 pmol h-1 oocyte-1
- Activity at pH 6.0 [1, 3]: 4.71 ± 0.40 pmol h-1 oocyte-1
- R-value ([1]; E372A, CQ transport at pH 4.5 / pH 6.0): 0.49 ± 0.08 and 0.49
- E372A transport activity pH 4.5 ([1]; pH 4.5, individual replicates (Fig 6a)): 3.05 pmol oocyte-1 h-1 and 1.75 pmol oocyte-1 h-1 and 2.16 pmol oocyte-1 h-1 and 1.95 pmol oocyte-1 h-1
- E3723A transport activity pH 4.5 [1, 4]: 3.05 pmol oocyte-1 h-1 and 1.75 pmol oocyte-1 h-1 and 2.16 pmol oocyte-1 h-1 and 1.95 pmol oocyte-1 h-1
- E372A transport activity pH 6.0 ([1]; individual replicates (Fig 6a)): 4.02 pmol oocyte-1 h-1 and 4.13 pmol oocyte-1 h-1 and 6.01 pmol oocyte-1 h-1 and 4.68 pmol oocyte-1 h-1
- E372A transport activity pH 6.0 ([1]; single replicates, Fig 1d left): 4.02 pmol oocyte-1 h-1 and 4.13 pmol oocyte-1 h-1 and 6.01 pmol oocyte-1 h-1 and 4.68 pmol oocyte-1 h-1
- Activity at pH 4.5 [2, 5]: 2.03 ± 0.27 pmol h-1 oocyte-1
- Activity at pH 6.0 [2, 5]: 5.06 ± 0.47 pmol h-1 oocyte-1
- R-value ([2]; H46A, CQ transport at pH 4.5 / pH 6.0): 0.40 ± 0.03
- H46A transport activity pH 4.5 [2, 4]: 2.52 pmol oocyte-1 h-1 and 1.13 pmol oocyte-1 h-1 and 2.13 pmol oocyte-1 h-1 and 2.35 pmol oocyte-1 h-1
- H46A R-value ([2]; pH 4.5 vs pH 6.0, Fig 1d left): 0.45 and 0.32 and 0.36
- H46A transport activity pH 6.0 ([2]; pH 6.0, single replicates, Fig 1d left): 5.57 pmol oocyte-1 h-1 and 3.48 pmol oocyte-1 h-1 and 5.92 pmol oocyte-1 h-1 and 5.27 pmol oocyte-1 h-1
